Patent publication US11707537B2, “Conformational restriction of cyanine fluorophores in far-red and near-IR range” (The United States of America, as represented by the …, priority 2017, dated 2023)
Marks after values point to notes of the source that are not given here. One block for each molecule: values may come before it.

How the values were obtained:
Type in all cases: physicochemical
Fluorescence lifetime = details: for solvent viscosity sensitivity of fluorescence lifetime and quantum yield: solvents of Table 2
[1] = TCEP addition, formation of phosphine-polyene adducts; details: 10 μM, TCEP in Tris (0.20 M, pH 9.0), absorbance at λmax
Protocol: FIG. 9 is a graph showing the effect of TCEP addition on absorbance of compound 7 and AF647 (10 μM each). Absorbance at λmax (compound 7 at 670 nm and AF647 at 650 nm) as a function of TCEP concentration in Tris (0.20 M, pH 9.0).
The formation of phosphine and thiol adducts in chemical and single molecule imaging contexts was also evaluated. TCEP (tris(2-carboxyethyl)phosphine) was add to compound 7 and AF647 (Alexa Fluor 647, available through ThermoFisher Scientific) (10 μM each) (Vaughan et al., JACS 2013, 135(4):1197-1200). Absorbance at λmax (compound 7 at 670 nm and AF647 at 650 nm) as a function of TCEP concentration in Tris (0.20 M, pH 9.0). Compound 7 (circles) appeared resistant to the formation of polyene-heteroatom adducts (FIG. 9).

[2] = Absorbance and molar absorption coefficient (Beer's law); details: for shift in λmax: relative to unrestricted compound 10
Description: (§1) All commercially obtained reagents were used as received. 2,3,3-trimethyl indoline (S1), malonaldehyde bis(phenylimine) monohydrochloride, Grubb's 2nd generation and Hoyveda-Grubbs 2nd generation catalysts were purchased from Sigma-Aldrich (St. Louis, Mo.). Acrolein dimethyl acetal (2) was purchased from TCI America (Portland, Oreg.). 4-hydrazinylbenzoic acid (S5) was ordered from Oakwood Chemical (Estill, S.C.). 2-(2-bromoethyl)-1,3-dioxolane was purchased from Acros Organics (Geel, Belgium). NH2-PEG8-COOH was purchased from Thermo Scientific (Waltham, Mass.). Aminophalloidin tosylate was purchased from Enzo, Inc. (Farmingdale, N.Y.). Compounds S2, S4, and S8 were synthesized according to known procedures (Hanessian et al., J. Am. Chem. Soc. 2004, 126 (19), 6064-71; Hall et al., Nucleic Acids Res. 2012, 40 (14), e108; Park et al., Bioconjugate Chem. 2012, 23 (3), 350-362). Normal phase (60 Å, 20-40 m, RediSep® Rf Gold® silica or 60 Å, 35-70 m, RediSep® Rf silica) and reversed phase (100 Å, 20-40 micron particle size, RediSep® Rf Gold® Reversed-phase C18 or C18Aq) flash column chromatography was performed on a CombiFlash© Rf 200i (Teledyne Isco, Inc., Lincoln, Nebr.). Reversed-phase preparative HPLC was performed using an Agilent 1260 Infinity II LC system utilizing a SunFire Prep C18 column (100 Å, 5 m, 10×150 mm) obtained from Waters, Co (Milford, Mass.). High-resolution LC/MS analyses were conducted on a Thermo-Fisher LTQ-Orbitrap-XL hybrid mass spectrometer system with an Ion MAX API electrospray ion source in negative ion mode. Analytical LC/MS was performed using a Shimadzu LCMS-2020 Single Quadrupole utilizing a Kinetex C18 column (100 Å, 2.6 m, 2.1×50 mm) obtained from Phenomenex, Inc (Torrance, Calif.). Runs employed a gradient of 0-90% MeCN/0.1% aqueous formic acid over 4.5 min at a flow rate of 0.2 mL/min. ^1H NMR and ^13C NMR spectra were recorded on Bruker spectrometers (at 400 or 500 MHz or at 100 or 125 MHz) and are reported relative to deuterated solvent signals. Data for ^1H NMR spectra are reported as follows: chemical shift (6 ppm), multiplicity, coupling constant (Hz), and integration. Data for ^13C NMR spectra are reported in terms of chemical shift. Absorbance curves were obtained on a Shimadzu UV-2550 spectrophotometer operated by UVProbe 2.32 software. Molar absorption coefficients (F) were determined in PBS (50 mM, pH 7.4) or methanol (MeOH) using Beer's law, from plots of absorbance vs. concentration. Measurements were performed in 10 mm path length quartz cuvettes (Hellma 111-QS) that were maintained at room temperature, and reported values are averages (n≥3). Fluorescence traces were recorded on a PTI QuantaMaster steady-state spectrofluorimeter operated by FelixGX 4.2.2 software, with 4 nm excitation and emission slit widths, and a 0.1 s integration rate. A Quantaurus-QY spectrometer (Hamamatsu, model C11374) was used to determine absolute fluorescence quantum yields (ΦF) (Suzuki et al., Phys. Chem. Chem. Phys. 112009, 9850-9860). This instrument uses an integrating sphere to measure photons absorbed and emitted by a sample. Measurements were carried out at a concentration of 250 nM in either MeOH or PBS (50 mM, pH 7.4) and self-absorption corrections were performed using the instrument software. Reported values are averages (n≥5). Data analysis and curve fitting were performed using MS Excel 2011 and GraphPad Prism 7. Light intensity measurements were performed with a Thorlabs PM200 optical power and energy meter fitted with an S120VC standard Si photodiode power sensor (200-1100 nm, 50 nW-50 mW). See JOC Standard Abbreviations and Acronyms for abbreviations (http://pubs.acs.org/paragonplus/submission/joceah/-joceah_abbreviations.pdf).

[3] = Fluorescence emission and fluorescence quantum yield
Description: as §1, with “A Quantaurus-QY spectrometer (Hamamatsu, model C11374) was used to determine absolute fluorescence quantum yields (ΦF) (Suzuki et al., Phys.” left out, “Measurements were carried out at a concentration of 250 nM in either MeOH or PBS (50 mM, pH 7.4) and self-absorption corrections were performed using the instrument software.” left out

[4] = Temperature dependence of fluorescence emission; details: in ethanol
Description: FIG. 7 is a graph showing the temperature dependence of fluorescence emission from compounds 4 (squares) and 10 (circles) in ethanol.
This is also due to photoisomerization in compound 10, which becomes more efficient at higher temperatures. The substantially longer lifetimes of compounds 4 and 7 relative to the unrestrained cyanine 10 point to significant potential for fluorescence lifetime imaging microscopy (FLIM).

τ (Fluorescence lifetime; in H2O): 1.7^c ns | solvent viscosity sensitivity of fluorescence lifetime and quantum yield (Fluorescence lifetime): largely solvent viscosity insensitive | formation of polyene-heteroatom adducts [1]: resistant | λmax ([2]; in pH 7.4 PBS): 670^b nm | ε ([2]; no solvent footnote on this cell (PBS or methanol)): 190,000 M^−1cm^−1 | shift in λmax [2]: approximately 25 nm | λem ([3]; in pH 7.4 PBS): 683^b nm
Structure (SMILES): CC1(C)C2=C3C=C4C=C5C6=[N+](CC[C@H]5O[C@H]4C[C@H]3CCN2c2ccc(S(=O)(=O)[O-])cc21)c1ccc(C(=O)O)cc1C6(C)C [Compound 7]

Structure (SMILES): CC1(C)C2=C3C=C4C=C5C6=[N+](CC[C@H]5O[C@H]4C[C@H]3CCN2c2ccccc21)c1ccccc1C6(C)C [Compound 4]
τ (Fluorescence lifetime; Acetone): 2.9 ns | τ (Fluorescence lifetime; EtOH): 2.5 ns | τ (Fluorescence lifetime; Glycerol): 2.3 ns | τ (Fluorescence lifetime; MeCN): 2.8 ns | τ (Fluorescence lifetime; in methanol (MeOH)): 2.5 ns | solvent viscosity sensitivity of fluorescence lifetime and quantum yield (Fluorescence lifetime): largely solvent viscosity insensitive | ε ([2]; in methanol): 206,000 M^−1cm^−1 | λmax ([2]; in methanol): 662 nm | shift in λmax [2]: approximately 25 nm | temperature sensitivity of fluorescence emission [4]: insensitive to temperature | ΦF ([3]; Acetone, calculated by relative method): 0.90 | ΦF ([3]; EtOH, calculated by relative method): 0.68 | ΦF ([3]; Glycerol, calculated by relative method): 0.66 | ΦF ([3]; MeCN, calculated by relative method): 0.92 | λem ([3]; in methanol): 677 nm | ΦF ([3]; in methanol (MeOH), integrating sphere): 0.69
